Patent US10640402B2, “Use of oxidizing and non-oxidizing biocides for control of bacteria tolerant to stabilized-oxidant treatment” (Ecolab USA Inc., priority 2012, dated 2020)

Legend:
[1] = tested on: Cl2-urea tolerant bacteria; assay: Biocide screening against Cl2-urea tolerant bacteria (Table 4); type: cell-based
[2] = tested on: Cl2-urea tolerant bacteria; assay: Laboratory screening using process water treated with urea-stabilized chlorine (Table 5); type: cell-based; conditions: for control of Cl2-urea tolerant bacteria (in words): typical use rates, Table 5 screening
[3] = tested on: urease-producing microorganisms; assay: Antimicrobial screening of biocides for control of urease-producing microorganisms; type: cell-based
[4] = tested on: process water microbial population (paper mill); assay: Initial laboratory screening of paper mill process water treated with NaOCl, before the urea-stabilized chlorine program; type: cell-based; conditions: 5 ppm Cl2
Experimental: (§1) The process water stream of a paper mill was treated using a urea-stabilized chlorine program.
(§2) Process water samples were challenged with untreated process water (1% v/v) after the 4-hours samples were plated. […] In Table 1, preservation from urea-stabilized chlorine was observed prior to the application of this program to the mill water system and development of the tolerant population.

[5] = tested on: microbial population tolerant to urea-stabilized chlorine; assay: Repeat laboratory screening of process water after 10 months of urea-stabilized chlorine treatment; type: cell-based; conditions: 5 ppm Cl2
Experimental: as §1, §2

urease = assay: Chlorine residual (TRO) with and without urease enzyme; type: physicochemical; conditions: control without urease
[6] = 24-hour, challenged with untreated process water (1% v/v) after 4-hour plating

SMILES | CFU/mL, 24-hour ([1]; 25 ppm product) | CFU/mL, 24-hour ([1]; 100 ppm product) | control of Cl2-urea tolerant bacteria (in words) [2] | control of urease-producing microorganisms (in words) [3] | CFU/mL, 1-hour ([2]; 25 ppm product) | CFU/mL, 4-hour ([2]; 25 ppm product) | CFU/mL, 24-hour ([2]; 25 ppm product) | CFU/mL, 1-hour ([2]; 100 ppm product) | CFU/mL, 4-hour ([2]; 100 ppm product) | CFU/mL, 24-hour ([2]; 100 ppm product) | also measured
O=[N+]([O-])C(Br)(CO)CO [Bronopol] | 1.0 × 10^5 CFU/mL | 1.3 × 10^4 CFU/mL | not effective | – | – | – | – | – | – | – | –
N#CC(Br)(Br)C(N)=O [Dibromonitrilopropionamide, dibromonitrilopropionamide] | 4.2 × 10^3 CFU/mL | <100 CFU/mL | particularly effective | effective control | 1.4 × 10^5 CFU/mL | 7.0 × 10^4 CFU/mL | 3.0 × 10^4 CFU/mL | 6.0 × 10^2 CFU/mL | 2.0 × 10^2 CFU/mL | 3.0 × 10^2 CFU/mL | –
O=CCCCC=O [Glutaraldehyde, glutaraldehyde] | 100 CFU/mL | <100 CFU/mL | particularly effective | effective control | 1.0 × 10^6 CFU/mL | 8.5 × 10^3 CFU/mL | 1.0 × 10^2 CFU/mL | 1.0 × 10^2 CFU/mL | 1.0 × 10^2 CFU/mL | 2 × 10^2 CFU/mL | –
[Na+].[O-]Cl [NaOCl, sodium hypochlorite] | – | – | also effective, but was required at higher concentrations | also effective | – | – | – | – | – | – | CFU/mL, Initial Screening, 1-hour ([4]; 1-hour): 3.4 × 10^5 CFU/mL; CFU/mL, Initial Screening, 4-hour ([4]; 4-hour): 3.6 × 10^6 CFU/mL; CFU/mL, Initial Screening, 24-hour [4, 6]: 1.9 × 10^7 CFU/mL; CFU/mL, Repeat Screening, 1-hour ([5]; 1-hour): 2.8 × 10^6 CFU/mL; CFU/mL, Repeat Screening, 4-hour ([5]; 4-hour): 6.0 × 10^6 CFU/mL; CFU/mL, Repeat Screening, 24-hour [5, 6]: 3.6 × 10^7 CFU/mL; TRO (as ppm Cl2), 1-hour (urease; 1-hour): 4.6 ppm Cl2; TRO (as ppm Cl2), 4-hour (urease; 4-hour): 4.5 ppm Cl2; TRO (as ppm Cl2), 24-hour (urease; 24-hour): 4.1 ppm Cl2; CFU/mL, 24-hour ([1]; 2.5 ppm as Cl2): 5.1 × 10^5 CFU/mL; CFU/mL, 24-hour ([1]; 10.0 ppm as Cl2): <100 CFU/mL; CFU/mL, 1-hour ([2]; 2.5 ppm as Cl2): 1.9 × 10^5 CFU/mL; CFU/mL, 4-hour ([2]; 2.5 ppm as Cl2): 2.0 × 10^6 CFU/mL; CFU/mL, 24-hour ([2]; 2.5 ppm as Cl2): 1.0 × 10^7 CFU/mL; CFU/mL, 1-hour ([2]; 10.0 ppm as Cl2): 2.0 × 10^2 CFU/mL; CFU/mL, 4-hour ([2]; 10.0 ppm as Cl2): 2.0 × 10^2 CFU/mL; CFU/mL, 24-hour ([2]; 10.0 ppm as Cl2): 5.0 × 10^2 CFU/mL
